The values that follow come from article PMC5031577, “Preclinical evaluation of [^68Ga]NOTA-pentixafor for PET imaging of CXCR4 expression in vivo — a comparison to [^68Ga]pentixafor” (EJNMMI Research, 2016).

One data set concerns CXCR4. To be noted: Jurkat T cells, [^125I]FC131 radioligand; natGa-complexed peptides and metal-free precursors; determined previously; cited from earlier work. From the text: Table 1 Comparison of the lipophilicity and the in vitro CXCR4 targeting characteristics of [^68Ga]NOTA-pentixafor and [^68Ga]pentixafor | column: IC50 (nM)
Data set [1] is described as follows: Determination of tracer lipophilicity (logP). To be noted: determined as published (method ref 22). In kind it is physicochemical. As for the experimental part: General procedures and syntheses of the peptides are described in a recently reported protocol. Determination of tracer lipophilicity and serum stability as well as in vitro studies were performed as recently published. ^68Ga-labeling of peptides was performed as described using a fully automated system (Scintomics GmbH); briefly, the ^68Ge/^68Ga generator eluate fractions (1.25 mL) were reacted with 5 nmol of peptide. The mixture was buffered with 0.6 mL HEPES (pH = 7.4) to a final pH of 3–4 and heated to 95 °C for 5 min. After purification via one Sep-Pak C8 light cartridge, the ethanolic product fraction was diluted with PBS and used as such for the experiments.

Details of data set [2]: method as in PMID 22045709. The following applies: at 30 min p.i.; cited from earlier work.
A short description of data set [3]: Biodistribution in Daudi lymphoma xenograft bearing SCID mice. In kind it is in vivo, mouse. The following applies: female, CB-17 SCID, mouse, iv, total radioactivity, mean ± SD. Here is the method: (§1) For PET (n = 3) and biodistribution studies (n = 5), an average of 15.2 MBq [^68Ga]NOTA-pentixafor (100 μL in PBS, 145 pmol, 171 ng) with a specific activity (AS) of 104 GBq/μmol was injected intravenously into the tail vein of isofluorane anesthesized female Daudi lymphoma-bearing SCID mice. […] After static PET imaging for 15 min (Inveon Siemens μPET scanner), the mice were sacrificed (90 min p.i.), and tissues and organs of interest were dissected, weighed, and counted for radioactivity in a γ-counter. The percentage of injected dose per gram of tissue (% ID/g) was calculated; data are shown as mean ± SD.

The test system of data set [4] is Daudi xenograft bearing CB-17 SCID mice. Described as above. Type of data set: in vivo, mouse. The following applies: tracer only, i.v., 1.5 h p.i., mean ± SD. As for the experimental part:
as §1

Data set [5] can be described thus: Metabolite analysis of mouse plasma after i.v. injection. Type of data set: in vivo. The following applies: CB17 SCID mouse, 50 MBq i.v., plasma at 60 min p.i., RP-HPLC with γ-counter. Here is the method:
All animal studies were conducted in accordance with the German Animal Welfare Act (Deutsches Tierschutzgesetz, approval No. 55.2-1-54-2532-71-13). For metabolite analysis, 50 MBq of [^68Ga]NOTA-pentixafor in a total volume of 200 μL of PBS was injected into the tail vein of a CB17 SCID mouse; the animal was sacrificed at 1 h p.i. and blood was collected. After sample preparation, as described in [24], the plasma samples were analyzed by reversed phase (RP)-HPLC and eluate fractions were analyzed using a γ-counter.

Setting [6] is: adrenals, 15.2 MBq, tracer only, i.v., 1.5 h p.i., read-out: Adrenals uptake.
[7] abbreviates: heart, 15.2 MBq, tracer only, i.v., 1.5 h p.i., read-out: Heart uptake.
Setting [8] is: intestine, 15.2 MBq, tracer only, i.v., 1.5 h p.i., read-out: Intestine uptake.
The mark [9] stands for this setting: kidney, 15.2 MBq, tracer only, i.v., 1.5 h p.i., read-out: Kidney uptake.
The mark [10] stands for this setting: liver, 15.2 MBq, tracer only, i.v., 1.5 h p.i., read-out: Liver uptake.
Setting [11] is: lung, 15.2 MBq, tracer only, i.v., 1.5 h p.i., read-out: Lung uptake.
Where [12] appears, read: muscle, 15.2 MBq, tracer only, i.v., 1.5 h p.i., read-out: Muscle uptake.
The mark [13] stands for this setting: pancreas, 15.2 MBq, tracer only, i.v., 1.5 h p.i., read-out: Pancreas uptake.
The mark [14] stands for this setting: spleen, 15.2 MBq, tracer only, i.v., 1.5 h p.i., read-out: Spleen uptake.
Setting [15] is: stomach, 15.2 MBq, tracer only, i.v., 1.5 h p.i., read-out: Stomach uptake.

Read-outs that look alike come from different tables or passages of the source. Square brackets hold non-standard residues; d marks the D form. Side chains are listed from the residue outwards. Peptide text beside a SMILES is read from it. * marks the point of attachment. DOTA = O=C(O)CN1CCN(CC(=O)O)CCN(CC(=O)*)CCN(CC(=O)O)CC1; NOTA = O=C(O)CN1CCN(CC(=O)O)CCN(CC(=O)*)CC1; 2Nal = N[C@@H](Cc1ccc2ccccc2c1)C(=O)O; dNMeOrn = CN[C@H](CCCN)C(=O)O; 4Amb = NCc1ccc(C(=O)O)cc1

A word on the IC50: it is the concentration that inhibits the measured activity by half. With Pentixafor, the IC50 in the data set with CXCR4 is 102 ± 17 nM.
One may read the logP as the decadic logarithm of the partition coefficient of the neutral form, usually between octanol and water. The low end stands for a more hydrophilic compound, the high end for a more lipophilic compound. In the case of `CN1C(=O)[C@@H](Cc2ccc(O)cc2)NC(=O)CNC(=O)[C@H](Cc2ccc3ccccc3c2)NC(=O)[C@H](CCCNC(=N)N)NC(=O)[C@H]1CCCNC(=O)c1ccc(CNC(=O)CN2CCN(CC(=O)O)CCN(CC(=O)O)CCN(CC(=O)O)CC2)cc1` [[^68Ga]pentixafor, metal not drawn] (cyclo([dY][dNMeOrn]([4Amb-DOTA])R[2Nal]G)), in data set [1], the lipophilicity (logP) is −2.90. Besides, in data set [2], the “radiometabolites in mouse plasma (metabolic stability)” value was “complete absence of radiometabolites”. Also, the tissue uptake at 1.5 h in data set [3] (setting [6]) turned out to be 3.68 ± 0.72 %ID/g; in data set [3] (setting [7]), 0.58 ± 0.17 %ID/g; in data set [3] (setting [8]) it was 0.7 ± 0.2 %ID/g; in data set [3] (setting [9]), 1.65 ± 0.91 %ID/g; in data set [3] (setting [10]) it was 2.05 ± 0.27 %ID/g; in data set [3] (setting [11]), 1.32 ± 0.29 %ID/g. The tissue uptake at 1.5 h came to 0.19 ± 0.06 %ID/g in data set [3] (setting [12]), 1.06 ± 0.22 %ID/g in data set [3] (setting [13]), 0.3 ± 0.1 %ID/g in data set [3] (setting [14]) and 0.48 ± 0.08 %ID/g in data set [3] (setting [15]). Besides, in data set [4], the Intestine uptake turned out to be 0.67 ± 0.21 % ID/g.
As for `CN1C(=O)[C@@H](Cc2ccc(O)cc2)NC(=O)CNC(=O)[C@H](Cc2ccc3ccccc3c2)NC(=O)[C@H](CCCNC(=N)N)NC(=O)[C@H]1CCCNC(=O)c1ccc(CNC(=O)CN2CCN(CC(=O)O)CCN(CC(=O)O)CC2)cc1` [[^68Ga]NOTA-pentixafor, metal not drawn] (cyclo([2Nal]G[dY][dNMeOrn]([4Amb-NOTA])R)), in data set [1], the logP is recorded as −2.36. In addition, the “radiometabolites in mouse plasma (metabolic stability)” value in data set [5] was “complete absence of radiometabolites”. In addition, the tissue uptake at 1.5 h in data set [3] (setting [6]) worked out at 0.52 ± 0.3 %ID/g; in data set [3] (adrenals, co-injection of 50 μg AMD3100, n = 3, 1.5 h p.i., read-out: Adrenals uptake), 0.48 ± 0.15 %ID/g; in data set [3] (blood, 15.2 MBq, tracer only, i.v., 1.5 h p.i., read-out: Blood uptake), 0.65 ± 0.41 %ID/g; in data set [3] (blood, co-injection of 50 μg AMD3100, n = 3, 1.5 h p.i., read-out: Blood uptake) it was 0.62 ± 0.26 %ID/g; in data set [3] (bone, 15.2 MBq, tracer only, i.v., 1.5 h p.i., read-out: Bone uptake), 0.25 ± 0.18 %ID/g; in data set [3] (bone, co-injection of 50 μg AMD3100, n = 3, 1.5 h p.i., read-out: Bone uptake), 0.16 ± 0.07 %ID/g. Moreover, the tissue uptake at 1.5 h is 3.61 ± 3 %ID/g in data set [3] (gallbladder, 15.2 MBq, tracer only, i.v., 1.5 h p.i., read-out: Gallbladder uptake); 5.14 ± 2.24 %ID/g in data set [3] (gallbladder, co-injection of 50 μg AMD3100, n = 3, 1.5 h p.i., read-out: Gallbladder uptake); 0.34 ± 0.19 %ID/g in data set [3] (setting [7]); 0.36 ± 0.14 %ID/g in data set [3] (heart, co-injection of 50 μg AMD3100, n = 3, 1.5 h p.i., read-out: Heart uptake); 1.89 ± 0.83 %ID/g in data set [3] (setting [8]); 3.97 ± 0.92 %ID/g in data set [3] (intestine, co-injection of 50 μg AMD3100, n = 3, 1.5 h p.i., read-out: Intestine uptake). Also, the tissue uptake at 1.5 h worked out at 2.71 ± 1.06 %ID/g in data set [3] (setting [9]); 3.56 ± 1.03 %ID/g in data set [3] (kidney, co-injection of 50 μg AMD3100, n = 3, 1.5 h p.i., read-out: Kidney uptake); 2.3 ± 0.88 %ID/g in data set [3] (setting [10]); 2.02 ± 0.76 %ID/g in data set [3] (liver, co-injection of 50 μg AMD3100, n = 3, 1.5 h p.i., read-out: Liver uptake); 0.73 ± 0.25 %ID/g in data set [3] (setting [11]); 0.95 ± 0.38 %ID/g in data set [3] (lung, co-injection of 50 μg AMD3100, n = 3, 1.5 h p.i., read-out: Lung uptake). Moreover, the tissue uptake at 1.5 h in data set [3] (setting [12]) turned out to be 0.13 ± 0.1 %ID/g; in data set [3] (muscle, co-injection of 50 μg AMD3100, n = 3, 1.5 h p.i., read-out: Muscle uptake), 0.13 ± 0.05 %ID/g; in data set [3] (setting [13]), 0.12 ± 0.05 %ID/g; in data set [3] (pancreas, co-injection of 50 μg AMD3100, n = 3, 1.5 h p.i., read-out: Pancreas uptake), 0.16 ± 0.05 %ID/g; in data set [3] (setting [14]), 0.44 ± 0.22 %ID/g; in data set [3] (spleen, co-injection of 50 μg AMD3100, n = 3, 1.5 h p.i., read-out: Spleen uptake), 0.54 ± 0.19 %ID/g. The tissue uptake at 1.5 h in data set [3] (setting [15]) was found to be 0.45 ± 0.21 %ID/g; in data set [3] (stomach, co-injection of 50 μg AMD3100, n = 3, 1.5 h p.i., read-out: Stomach uptake), 0.58 ± 0.24 %ID/g.
